What was measured:
Type in all cases: toxicity, organism-based
Details in all cases: salmonella enterica subsp. enterica serovar typhimurium
Salmonella typhimurium [1] = assay: Induction of mutagenesis in Salmonella typhimurium TA100 up to 5000 ug/plate by Ames test
Salmonella typhimurium [2] = assay: Induction of mutagenesis in Salmonella typhimurium TA98 up to 5000 ug/plate by Ames test
Salmonella typhimurium [3] = assay: Induction of mutagenesis in Salmonella typhimurium TA100 up to 5000 ug/plate by Ames test in presence of rat liver S9 fraction
Salmonella typhimurium [4] = assay: Induction of mutagenesis in Salmonella typhimurium TA98 up to 5000 ug/plate by Ames test in presence of rat liver S9 fraction
Salmonella typhimurium [5] = assay: Induction of mutagenesis in Salmonella typhimurium TA98 at 500 ug/plate by Ames test in presence of rat liver S9 fraction relative to control
Salmonella typhimurium [6] = assay: Induction of mutagenesis in Salmonella typhimurium TA100 at 160 ug/plate by Ames test in presence of rat liver S9 fraction relative to control
Salmonella typhimurium [7] = assay: Induction of mutagenesis in Salmonella typhimurium TA98 at 160 ug/plate by Ames test in presence of rat liver S9 fraction relative to control
Salmonella typhimurium [8] = assay: Induction of mutagenesis in Salmonella typhimurium TA98 at 1600 ug/plate by Ames test in presence of rat liver S9 fraction relative to control
Salmonella typhimurium [9] = assay: Induction of mutagenesis in Salmonella typhimurium TA100 at 50 ug/plate by Ames test in presence of rat liver S9 fraction relative to control
Salmonella typhimurium [10] = assay: Induction of mutagenesis in Salmonella typhimurium TA100 at 500 ug/plate by Ames test in presence of rat liver S9 fraction relative to control
Salmonella typhimurium [11] = assay: Induction of mutagenesis in Salmonella typhimurium TA98 at 50 ug/plate by Ames test in presence of rat liver S9 fraction relative to control
Salmonella typhimurium [12] = assay: Induction of mutagenesis in Salmonella typhimurium TA100 at 16 ug/plate by Ames test in presence of rat liver S9 fraction relative to control

Row | SMILES | Activity (Salmonella typhimurium [1]) | Activity (Salmonella typhimurium [2]) | Activity (Salmonella typhimurium [3]) | Activity (Salmonella typhimurium [4]) | fold change (FC) (Salmonella typhimurium [6]) | fold change (FC) (Salmonella typhimurium [7]) | also measured
1 | N#Cc1cc(N)ccc1-c1ccccc1Cl | Non-toxic | Non-toxic | Non-toxic | Non-toxic |  |  | 
2 | Nc1ccc(-c2c(F)cccc2F)cc1 | Non-toxic | Non-toxic |  |  | 3 |  | fold change (FC) (Salmonella typhimurium [5]): 7
3 | Nc1ccc(-c2ccccc2F)c(F)c1 | Non-toxic | Non-toxic | Non-toxic | Non-toxic |  |  | 
4 | Nc1ccc(-c2ccccc2Cl)cc1 | Non-toxic | Non-toxic |  |  | 5 | 11 | 
5 | Nc1ccc(-c2ccccc2Cl)c(F)c1 | Non-toxic | Non-toxic | Non-toxic | Non-toxic |  |  | 
6 | CS(=O)(=O)NCc1ccc(-c2ccc(N)cc2F)c(Cl)c1 | Non-toxic | Non-toxic | Non-toxic |  |  |  | fold change (FC) (Salmonella typhimurium [8]): 3
7 | N#Cc1ccc(-c2ccc(N)cc2F)c(Cl)c1 | Non-toxic | Non-toxic | Non-toxic | Non-toxic |  |  | 
8 | Nc1ccc(-c2ccccc2)c(F)c1 | Non-toxic | Non-toxic |  |  | 3 | 2 | 
9 | Nc1ccc(-c2ccccc2)c(Cl)c1 | Non-toxic | Non-toxic | Non-toxic | Non-toxic |  |  | 
10 | Nc1ccc(-c2ccccc2F)cc1 | Non-toxic | Non-toxic |  |  | 10 | 26 | 
11 | Nc1ccc(-c2cccc(Cl)c2)cc1 | Non-toxic | Non-toxic |  |  |  | 47 | fold change (FC) (Salmonella typhimurium [9]): 12
12 | Nc1ccc(-c2ccc(Cl)cc2)cc1 | Non-toxic | Non-toxic |  |  |  | 54 | fold change (FC) (Salmonella typhimurium [10]): 14
13 | Nc1ccc(-c2c(F)cccc2F)c(F)c1 | Non-toxic | Non-toxic | Non-toxic | Non-toxic |  |  | 
14 | Nc1ccc(-c2ccc(F)cc2F)c(F)c1 | Non-toxic | Non-toxic | Non-toxic | Non-toxic |  |  | 
15 | N#Cc1cc(Cl)ccc1-c1ccc(N)cc1F | Non-toxic | Non-toxic | Non-toxic | Non-toxic |  |  | 
16 | Nc1ccc(-c2c(F)cccc2Cl)c(F)c1 | Non-toxic | Non-toxic | Non-toxic | Non-toxic |  |  | 
17 | Nc1ccc(-c2ccccc2)cc1Cl | Non-toxic | Non-toxic |  |  |  |  | fold change (FC) (Salmonella typhimurium [11]): 54; fold change (FC) (Salmonella typhimurium [9]): 37
18 | Nc1ccc(-c2ccccc2)cc1F | Non-toxic | Non-toxic |  |  |  |  | fold change (FC) (Salmonella typhimurium [12]): 27; fold change (FC) (Salmonella typhimurium [11]): 54
19 | Nc1ccc(-c2ccc(F)cc2)cc1 | Non-toxic | Non-toxic |  |  | 21 | 43 | 
20 | Nc1ccc(-c2cccc(F)c2)cc1 | Non-toxic | Non-toxic |  |  | 13 | 38 | 
